According to the supplement of paper PMC10307832:

How the values were obtained:
Assay in all cases: relative viability (nuclei count vs DMSO), 5 days (fraction); higher = more cells survive
NCI-H520 = test system: NCI-H520
Summary of the method: (§1)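 Relative viability equals treated-well nuclei counts divided by vehicle-well nuclei counts. Counts came from 4× images of lung cancer cell lines grown in 1536-well plates for 5 days after pin-tool dosing on the day after seeding. Dosing used one drug alone or a fixed anchor-drug dose plus five library-drug doses (not always all listed) in √10 steps, and values are medians of duplicate plates.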

H3255 = test system: H3255
Summary of the method: as §1

ChaGo-K-1 = test system: ChaGo-K-1
Summary of the method: as §1

NCI-H661 = test system: NCI-H661
Summary of the method: as §1

NCI-H650 = test system: NCI-H650
Summary of the method: as §1

NCI-H1915 = test system: NCI-H1915
Summary of the method: as §1

HCC-827 = test system: HCC-827
Summary of the method: as §1

NCI-H2405 = test system: NCI-H2405
Summary of the method: as §1

HCC-78 = test system: HCC-78
Summary of the method: as §1

COR-L 105 = test system: COR-L 105
Summary of the method: as §1

LCLC-97TM1 = test system: LCLC-97TM1
Summary of the method: as §1

NCI-H2126 = test system: NCI-H2126
Summary of the method: as §1

PC-14 = test system: PC-14
Summary of the method: as §1

NCI-H1666 = test system: NCI-H1666
Summary of the method: as §1

LC-2-ad = test system: LC-2-ad
Summary of the method: as §1

NCI-H647 = test system: NCI-H647
Summary of the method: as §1

NCI-H2347 = test system: NCI-H2347
Summary of the method: as §1

NCI-H2087 = test system: NCI-H2087
Summary of the method: as §1

201T = test system: 201T
Summary of the method: as §1

EPLC-272H = test system: EPLC-272H
Summary of the method: as §1

RERF-LC-KJ = test system: RERF-LC-KJ
Summary of the method: as §1

NCI-H23 = test system: NCI-H23
Summary of the method: as §1

Cc1sc2c(c1C)C(c1ccc(Cl)cc1)=N[C@@H](CC(=O)OC(C)(C)C)c1nnc(C)n1-2 [JQ1] + CC(=O)Nc1cccc(-n2c(=O)n(C3CC3)c(=O)c3c(Nc4ccc(I)cc4F)n(C)c(=O)c(C)c32)c1 [Trametinib] (partner 0.02 µM)
relative viability (NCI-H520; first compound 0.04 µM): 0.565 | relative viability (NCI-H520; first compound 0.1265 µM): 0.66 | relative viability (NCI-H520; first compound 0.4 µM): 0.386 | relative viability (NCI-H520; first compound 1.265 µM): 0.391 | relative viability (NCI-H520; first compound 4 µM): 0.239 | relative viability (H3255; first compound 0.04 µM): 0.58 | relative viability (H3255; first compound 0.4 µM): 0.452 | relative viability (H3255; first compound 1.265 µM): 0.345 | relative viability (H3255; first compound 4 µM): 0.322 | relative viability (ChaGo-K-1; first compound 0.04 µM): 0.943 | relative viability (ChaGo-K-1; first compound 0.1265 µM): 0.928 | relative viability (ChaGo-K-1; first compound 0.4 µM): 0.797 | relative viability (ChaGo-K-1; first compound 1.265 µM): 0.641 | relative viability (ChaGo-K-1; first compound 4 µM): 0.483 | relative viability (NCI-H661; first compound 0.04 µM): 0.554 | relative viability (NCI-H661; first compound 0.1265 µM): 0.451 | relative viability (NCI-H661; first compound 0.4 µM): 0.508 | relative viability (NCI-H661; first compound 1.265 µM): 0.46 | relative viability (NCI-H661; first compound 4 µM): 0.441 | relative viability (NCI-H650; first compound 0.04 µM): 0.852 | relative viability (NCI-H650; first compound 0.1265 µM): 0.812 | relative viability (NCI-H650; first compound 0.4 µM): 0.779 | relative viability (NCI-H650; first compound 1.265 µM): 0.371 | relative viability (NCI-H650; first compound 4 µM): 0.275 | relative viability (NCI-H1915; first compound 0.04 µM): 0.281 | relative viability (NCI-H1915; first compound 0.4 µM): 0.317 | relative viability (NCI-H1915; first compound 1.265 µM): 0.237 | relative viability (NCI-H1915; first compound 4 µM): 0.2 | relative viability (HCC-827; first compound 0.04 µM): 0.562 | relative viability (HCC-827; first compound 0.1265 µM): 0.519 | relative viability (HCC-827; first compound 1.265 µM): 0.543 | relative viability (HCC-827; first compound 4 µM): 0.474 | relative viability (NCI-H2405; first compound 0.04 µM): 0.627 | relative viability (NCI-H2405; first compound 0.4 µM): 0.601 | relative viability (NCI-H2405; first compound 1.265 µM): 0.422 | relative viability (NCI-H2405; first compound 4 µM): 0.332 | relative viability (HCC-78; first compound 0.04 µM): 0.791 | relative viability (HCC-78; first compound 0.1265 µM): 0.603 | relative viability (HCC-78; first compound 0.4 µM): 0.572 | relative viability (HCC-78; first compound 1.265 µM): 0.462 | relative viability (HCC-78; first compound 4 µM): 0.367 | relative viability (COR-L 105; first compound 0.04 µM): 0.46 | relative viability (COR-L 105; first compound 0.1265 µM): 0.362 | relative viability (COR-L 105; first compound 0.4 µM): 0.377 | relative viability (COR-L 105; first compound 1.265 µM): 0.355 | relative viability (COR-L 105; first compound 4 µM): 0.357 | relative viability (LCLC-97TM1; first compound 0.04 µM): 0.187 | relative viability (LCLC-97TM1; first compound 0.1265 µM): 0.149 | relative viability (LCLC-97TM1; first compound 0.4 µM): 0.189 | relative viability (LCLC-97TM1; first compound 1.265 µM): 0.102 | relative viability (LCLC-97TM1; first compound 4 µM): 0.102 | relative viability (NCI-H2126; first compound 0.04 µM): 0.521 | relative viability (NCI-H2126; first compound 0.1265 µM): 0.549 | relative viability (NCI-H2126; first compound 0.4 µM): 0.486 | relative viability (NCI-H2126; first compound 1.265 µM): 0.368 | relative viability (NCI-H2126; first compound 4 µM): 0.416 | relative viability (PC-14; first compound 0.04 µM): 0.862 | relative viability (PC-14; first compound 0.1265 µM): 0.174 | relative viability (PC-14; first compound 0.4 µM): 0.515 | relative viability (PC-14; first compound 1.265 µM): 0.26 | relative viability (PC-14; first compound 4 µM): 0.182 | relative viability (NCI-H1666; first compound 0.04 µM): 0.92 | relative viability (NCI-H1666; first compound 0.1265 µM): 0.874 | relative viability (NCI-H1666; first compound 0.4 µM): 0.847 | relative viability (NCI-H1666; first compound 1.265 µM): 0.641 | relative viability (NCI-H1666; first compound 4 µM): 0.757 | relative viability (LC-2-ad; first compound 0.04 µM): 0.866 | relative viability (LC-2-ad; first compound 0.1265 µM): 0.918 | relative viability (LC-2-ad; first compound 0.4 µM): 0.708 | relative viability (LC-2-ad; first compound 1.265 µM): 0.479 | relative viability (LC-2-ad; first compound 4 µM): 0.303 | relative viability (NCI-H647; first compound 0.04 µM): 0.403 | relative viability (NCI-H647; first compound 0.1265 µM): 0.326 | relative viability (NCI-H647; first compound 0.4 µM): 0.214 | relative viability (NCI-H647; first compound 1.265 µM): 0.126 | relative viability (NCI-H647; first compound 4 µM): 0.0652 | relative viability (NCI-H2347; first compound 0.04 µM): 0.275 | relative viability (NCI-H2347; first compound 0.1265 µM): 0.294 | relative viability (NCI-H2347; first compound 0.4 µM): 0.276 | relative viability (NCI-H2347; first compound 1.265 µM): 0.24 | relative viability (NCI-H2347; first compound 4 µM): 0.258 | relative viability (NCI-H2087; first compound 0.04 µM): 0.192 | relative viability (NCI-H2087; first compound 0.1265 µM): 0.179 | relative viability (NCI-H2087; first compound 0.4 µM): 0.18 | relative viability (NCI-H2087; first compound 1.265 µM): 0.142 | relative viability (NCI-H2087; first compound 4 µM): 0.167 | relative viability (201T; first compound 0.04 µM): 0.72 | relative viability (201T; first compound 0.4 µM): 0.538 | relative viability (201T; first compound 1.265 µM): 0.505 | relative viability (201T; first compound 4 µM): 0.391 | relative viability (EPLC-272H; first compound 0.04 µM): 0.278 | relative viability (EPLC-272H; first compound 0.1265 µM): 0.252 | relative viability (EPLC-272H; first compound 0.4 µM): 0.273 | relative viability (EPLC-272H; first compound 1.265 µM): 0.254 | relative viability (EPLC-272H; first compound 4 µM): 0.215 | relative viability (RERF-LC-KJ; first compound 0.04 µM): 0.907 | relative viability (RERF-LC-KJ; first compound 0.1265 µM): 0.803 | relative viability (RERF-LC-KJ; first compound 0.4 µM): 0.817 | relative viability (RERF-LC-KJ; first compound 1.265 µM): 0.532 | relative viability (RERF-LC-KJ; first compound 4 µM): 0.449 | relative viability (NCI-H23; first compound 0.04 µM): 0.348 | relative viability (NCI-H23; first compound 0.1265 µM): 0.268 | relative viability (NCI-H23; first compound 0.4 µM): 0.256 | relative viability (NCI-H23; first compound 1.265 µM): 0.201 | relative viability (NCI-H23; first compound 4 µM): 0.173
